Assay results as given in ChEMBL document CHEMBL1201862, “PubChem BioAssay data set” (2004).
Values joined by “and” are separate entries in the source; they are usually repeats but may differ in a detail not shown here. Equal values may be shown once.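 Dose response: 5 concentrations. Exposure: 48 h. Format: 96-well plates. Endpoint: linear interpolation; highest concentration if not reached. GI50 marks 50% less growth.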 Active and inactive are the calls of the source. Cut-off read from the data, not from the text of the source: active = GI50 up to about 1.1 µM and inactive = higher.

Experiments:
Test in all cases: NCI tumour cell line growth inhibition, 48 h
[1] = tested on: COLO 205
[2] = tested on: DLD-1
[3] = tested on: HCT-15
[4] = tested on: HOP-18
[5] = tested on: NCI-H226
[6] = tested on: NCI-H23
[7] = tested on: NCI/ADR-RES
[8] = tested on: OVCAR-3
[9] = tested on: OVCAR-4
[10] = tested on: RPMI-8226
[11] = tested on: RXF 393
[12] = tested on: SF-295
[13] = tested on: SNB-78
[14] = tested on: UACC-257
[15] = tested on: HOP-62
[16] = tested on: M14
[17] = tested on: SR
[18] = tested on: DU-145
[19] = tested on: Hs-578T
[20] = tested on: MDA-MB-435

Measured: GI50

Nc1ccn(C2OC(COP(=O)(O)Oc3ccccc3)C(O)C2O)c(=O)n1 (centres undefined)
> 60 µM: [3]
inactive: [1] 61.9 µM | [2] > 100 µM | [4] > 74.5 µM | [5] > 100 µM | [6] 7.36 µM | [7] 16.7 µM | [8] > 100 µM | [9] > 100 µM | [10] > 100 µM | [11] > 45.8 µM | [12] > 100 µM | [13] > 100 µM | [14] > 95.9 µM

CN1C(=O)c2ccccc2NC(=O)c2cnn(C)c21
inactive: [1] > 100 µM | [2] > 100 µM | [4] > 100 µM | [15] > 100 µM | [5] > 100 µM | [6] > 100 µM | [7] > 100 µM | [8] > 100 µM | [9] > 100 µM | [10] > 100 µM | [11] > 100 µM | [12] > 100 µM | [13] > 100 µM | [14] > 100 µM
> 100 µM: [3]

C/C(CCOC1CCCCO1)=C(\C)[Si](C)(C)C (centres undefined)
inactive: [1] > 100 µM | [2] > 100 µM | [16] > 100 µM | [6] > 100 µM | [8] > 100 µM | [10] > 100 µM | [12] > 100 µM | [13] > 100 µM | [17] > 100 µM | [14] > 100 µM
> 100 µM: [3]

c1cc(CNC2C3CCC(C3)C2c2c[nH]c3ccccc23)cc(CNC2C3CCC(C3)C2c2c[nH]c3ccccc23)c1 (centres undefined)
active: [16] 667 nM and 638 nM | [20] 658 nM and 637 nM | [10] 0.207 µM | [17] 258 nM and 186 nM
inactive: [18] 1.57 µM and 1.3 µM | [15] 1.85 µM and 1.77 µM | [19] 1.43 µM and 1.62 µM | [5] 2 µM and 2.07 µM | [6] 1.68 µM and 1.77 µM | [8] 1.76 µM and 1.71 µM | [9] 1.7 µM and 1.58 µM | [11] 1.22 µM and 1.31 µM | [12] 1.73 µM and 1.46 µM

COc1ccc(N2C(=O)C(=O)C3(CCCCC3)C2=O)c2ccccc12
inactive: [1] > 10 µM | [18] > 10 µM | [15] > 10 µM | [19] > 10 µM | [16] > 10 µM | [20] > 10 µM | [5] > 10 µM | [6] > 10 µM | [7] > 10 µM | [9] > 10 µM | [10] > 10 µM | [11] > 10 µM | [12] > 10 µM | [17] > 10 µM
> 10 µM: [3]

C[n+]1cccc2c(=O)c3ccccc3oc21
inactive: [1] > 100 µM | [18] > 100 µM | [15] > 100 µM | [19] > 100 µM | [16] > 100 µM | [20] > 100 µM | [5] > 100 µM | [6] > 100 µM | [7] > 100 µM | [8] > 100 µM | [9] > 100 µM | [11] > 100 µM | [12] > 100 µM | [17] > 100 µM
> 100 µM: [3]

O=c1sc2ccccc2n1CC1CS1 (centres undefined)
> 100 µM: [3]
inactive: [1] > 100 µM | [15] > 100 µM | [16] > 100 µM | [5] > 100 µM | [8] > 100 µM | [9] > 100 µM | [10] > 100 µM | [11] > 100 µM | [12] > 100 µM | [17] > 100 µM

C=CCCCC12CCCc3cccc(c31)NC2=O (centres undefined)
inactive: [1] 20.2 µM | [2] 19.6 µM | [15] 34 µM | [16] 14.4 µM | [5] 20.6 µM | [6] 18.1 µM | [8] 18 µM | [9] 18.9 µM | [10] 19.7 µM | [11] 17.6 µM | [12] 76.2 µM | [17] 20.8 µM | [14] 22.1 µM

COc1ccc(-n2cnnc2-c2nsc3ccccc23)cc1
51.6 µM: [3]
inactive: [1] > 100 µM | [4] 36.6 µM | [15] 94.8 µM | [16] > 100 µM | [6] 95.3 µM | [8] 51.4 µM | [9] > 100 µM | [10] 60 µM | [11] 12.4 µM | [13] > 100 µM | [17] > 100 µM | [14] > 100 µM

COc1ccc(N2C(=O)C(=O)N(C)C2=O)c2ccccc12
> 10 µM: [3]
inactive: [1] > 10 µM | [18] > 10 µM | [15] > 10 µM | [19] > 10 µM | [16] > 10 µM | [20] > 10 µM | [5] > 10 µM | [6] > 10 µM | [7] > 10 µM | [8] > 10 µM | [9] > 10 µM | [10] > 10 µM | [11] > 10 µM | [12] > 10 µM | [17] > 10 µM

CCN(CC)CCn1c(=O)c2c(C)c3oc4ccccc4oc3c(C)c2c1=O
inactive: [1] > 100 µM | [15] > 100 µM | [19] > 100 µM | [16] > 100 µM | [20] > 100 µM | [5] > 100 µM | [7] > 100 µM | [9] > 100 µM | [10] > 100 µM | [11] > 100 µM | [12] > 100 µM | [14] > 100 µM
> 100 µM: [3]

COC1=CC(=O)c2c(c(O)c3oc4cc(OC)cc(C)c4c(=O)c3c2O)C1=O [BIKAVERIN]
active: [4] 0.906 µM | [15] 1.1 µM | [5] 0.159 µM | [6] 1.07 µM | [7] 0.881 µM | [8] 0.809 µM | [10] 1.01 µM | [11] 0.912 µM
inactive: [1] 20.3 µM | [2] 1.8 µM | [9] 1.27 µM | [12] 1.12 µM | [13] 3.41 µM | [14] 1.2 µM
1.21 µM: [3]
